This is an account of results in patent US20120065187A1 (ALCON RESEARCH, LTD, priority 2008, published 2012).

Structures are written as SMILES. Structures can show the parent of a compound that is named as a salt.

One assay has as its target T1, human H4 (Homo sapiens, UniProt Q9H3N8).
T1 construct: host or cells: CHO-K1
The experiment in a line: In vitro histamine receptor cell-based assay (aequorin bioluminescence), H4 antagonism. To be noted: CHO-K1 cells expressing human H4, aequorin and Gα16; histamine at EC80; read-out: H4 Antagonist EC50. The method, boiled down: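 CHO-K1 cells stably expressing human H4, Gα16 and mitochondrial aequorin, loaded with 5 μM coelenterazine-h, preincubated 15 min at room temperature with compound, then challenged with histamine at EC80.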

The target in a further assay is T2, human H1 (Homo sapiens, UniProt P35367).
T2 construct: host or cells: CHO-K1
T2 sequence (P35367 whole entry): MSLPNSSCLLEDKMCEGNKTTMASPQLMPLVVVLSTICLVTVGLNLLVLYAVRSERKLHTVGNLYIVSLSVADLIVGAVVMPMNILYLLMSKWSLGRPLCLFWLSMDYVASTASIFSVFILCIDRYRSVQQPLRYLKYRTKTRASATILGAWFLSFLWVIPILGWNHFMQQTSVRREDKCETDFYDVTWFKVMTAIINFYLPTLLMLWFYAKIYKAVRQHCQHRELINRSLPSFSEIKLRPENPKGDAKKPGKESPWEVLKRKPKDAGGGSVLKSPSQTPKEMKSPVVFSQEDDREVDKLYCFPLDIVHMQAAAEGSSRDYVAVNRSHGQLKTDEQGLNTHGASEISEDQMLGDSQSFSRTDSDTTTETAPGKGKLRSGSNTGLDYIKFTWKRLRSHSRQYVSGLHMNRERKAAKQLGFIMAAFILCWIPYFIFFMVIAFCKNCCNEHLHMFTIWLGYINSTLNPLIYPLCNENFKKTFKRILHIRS
The experiment in a line: In vitro histamine receptor cell-based assay (aequorin bioluminescence), H1 antagonism. The conditions noted are these: CHO-K1 cells expressing human H1 and aequorin; histamine at EC80; read-out: H1 Antagonist EC50. The method, boiled down:
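Stable CHO-K1 lines expressing human H1 or H4 (H4 with Gα16) plus mitochondrial aequorin, loaded 4 h with 5 μM coelenterazine-h at ~21 °C. Compounds preincubated 15 min, then histamine at EC80 added; bioluminescence decrease (AUC or max–min) expressed as % of positive control (diphenhydramine for H1, JNJ7777120 for H4, 10 μM).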

Assay [1] relates to Hartley VAF outbred guinea pigs. Briefly: Allergic conjunctivitis in passively sensitized guinea pigs (conjunctival EPO activity). The conditions noted are these: reduction of conjunctival EPO activity vs dexamethasone; for BID activity: 0.01% bid topical, 1 hour prior to and 8 hours after ovalbumin challenge; for QD activity: ≦0.1% qd topical, 1 hour prior to ovalbumin challenge. The format is in vivo. Also on record: key: +: a 0.01% bid dose was statistically equivalent to dexamethasone with respect to reduction of EPO activity; −: the compound was statistically inferior to dexamethasone and not different than vehicle. Here is the method: Male Hartley VAF outbred guinea pigs were passively sensitized to ovalbumin by a single OD subconjunctival injection of undiluted guinea pig anti-ovalbumin antiserum 24 hours before OD topical challenge with 500 μg ovalbumin in saline. Control animals were injected with saline only and challenged with ovalbumin. To determine acute phase drug efficacy, 30 min after challenge animals were clinically scored by a masked observer for severity of signs of conjunctivitis based on a standard scale. Test compounds were administered topically 1 hour prior to challenge (QD protocol), or 1 hour prior to challenge and again 8 hours after challenge (BID protocol). Twenty-four hours after challenge, animals were euthanized and conjunctivae were harvested for determination of tissue eosinophil peroxidase (EPO) concentration as a marker of allergic inflammation. Homogenates of freshly collected tissues were prepared by shaking the tissues in 2 mL round-bottom tubes containing 0.5 mL of homogenization buffer (50 mM Tris HCl, pH 8.0, 6 mM KBr) and one 5-mm stainless steel bead on a Qiagen TissueLyser at 30 Hz for 5 min. Homogenates were frozen and thawed once, then centrifuged at 10,000 rpm for 5 min. EPO activity in supernatants was measured by reacting diluted homogenates with a solution of 6 mM o-phenylenediamine substrate and 8.8 mM H2O2 in homogenization buffer for 3 min. The reaction was stopped with 4M H2SO4 and absorbances were measured at […] on a spectrophotometric plate reader. Total EPO in samples was calculated from a standard curve of recombinant human EPO in each assay. EPO activity was normalized to total protein concentration (Pierce BCA assay) in supernatants. Background EPO activity was determined from the unsensitized, antigen-challenged control group. Percent inhibition was calculated from the sensitized, antigen-challenged, vehicle-treated control group in each experiment. Ovalbumin-injected animals dosed topically with 0.1% w/v dexamethasone (dex) served as positive control. Groups were compared by ANOVA with Dunnett's or Tukey's post-hoc tests where appropriate with significance assigned at the 95% confidence level.
The table below summarizes the results.

T1 sequence (Q9H3N8 whole entry): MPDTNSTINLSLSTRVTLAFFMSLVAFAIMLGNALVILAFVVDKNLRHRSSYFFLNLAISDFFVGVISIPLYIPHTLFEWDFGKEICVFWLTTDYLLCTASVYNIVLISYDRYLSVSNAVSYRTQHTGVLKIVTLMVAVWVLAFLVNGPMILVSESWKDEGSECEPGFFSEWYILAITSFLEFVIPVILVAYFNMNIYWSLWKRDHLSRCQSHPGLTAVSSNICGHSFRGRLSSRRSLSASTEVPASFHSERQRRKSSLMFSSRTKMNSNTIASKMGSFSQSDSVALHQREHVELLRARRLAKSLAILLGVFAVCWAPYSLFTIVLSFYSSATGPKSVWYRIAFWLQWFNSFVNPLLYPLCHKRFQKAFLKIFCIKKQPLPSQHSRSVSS

As a reminder, the EC50 is the midpoint of the concentration-response curve. With `Cc1nc2c3cc(Cl)c(F)cc3nc(N3CCN(C)CC3)n2n1` [Example 95, 9-Chloro-8-fluoro-2-methyl-5-(4-methylpiperazin-1-yl)-[1,2,4]triazolo[1,5-c]quinazoline], the EC50 at human H4 was less than 10 µM; at human H1, greater than 10 µM. In addition, the BID activity entry in assay [1] was “−”.
In the same order, the values of `CN1CCN(c2nc3cc(F)c(F)cc3n3cnnc23)CC1` [Example 37, 7,8-difluoro-4-(4-methylpiperazin-1-yl)-[1,2,4]triazolo[4,3-a]quinoxaline] are less than 10 µM, greater than 10 µM and “+”.
On to `CN1CCN(c2nc3ccc(C(F)(F)F)cc3n3cnnc23)CC1` [Example 23, 4-(4-methylpiperazin-1-yl)-8-(trifluoromethyl)-[1,2,4]triazolo[4,3-a]quinoxaline], for which the EC50 is less than 10 µM on human H4 and greater than 10 µM on human H1. The BID activity entry in assay [1] was “+”.
As for `Cc1nc2c3cc(C(F)(F)F)c(F)cc3nc(N3CCNCC3)n2n1.Cl` [Example 125, 8-fluoro-2-methyl-5-(piperazin-1-yl)-9-(trifluoromethyl)-[1,2,4]triazolo[1,5-c]quinazoline hydrochloride], the concentration giving a half-maximal response (EC50) is less than 10 µM on human H4 and greater than 10 µM at human H1. Further, the QD activity entry in assay [1] is recorded as “−”.
Taken in the same sequence, the figures for `Cc1nc2c(N3CCN(C)CC3)nc3cc(F)c(F)cc3c2o1` [Example 145, 7,8-difluoro-2-methyl-4-(4-methylpiperazin-1-yl)oxazolo[4,5-c]quinoline] were less than 10 µM, greater than 10 µM and “−”.
Taken in the same sequence, the figures for `Brc1ccc2nc(N3CCNCC3)c3nncn3c2c1` [Example 52, 8-bromo-4-(piperazin-1-yl)-[1,2,4]triazolo[4,3-a]quinoxaline] were less than 10 µM, greater than 10 µM and “−”.
Taken in the same sequence, the figures for `Cc1nc2c3cc(Br)ccc3nc(N3CCNCC3)n2n1` [Example 136, 9-bromo-2-methyl-5-(piperazin-1-yl)-[1,2,4]triazolo[1,5-c]quinazoline] were less than 10 µM, greater than 10 µM and “−”.
For the molecule `Cc1nc2c(N3CCN(C)CC3)nc3ccc(Cl)cc3c2o1` [Example 143, 8-chloro-2-methyl-4-(4-methylpiperazin-1-yl)oxazolo[4,5-c]quinoline], at human H4, the EC50 was less than 10 µM. On human H1, the EC50 was less than 10 µM. Moreover, in assay [1], the BID activity result is recorded as “+” and the QD activity entry is on record as “−”.
For `CN1CCN(c2nc3ccc(C(F)(F)F)cc3n3nnnc23)CC1` [Example 27, 4-(4-methylpiperazin-1-yl)-8-(trifluoromethyl)tetrazolo[1,5-a]quinoxaline], the values for the concentration for a half-maximal effect (EC50) at human H4 and on human H1 were less than 10 µM and greater than 10 µM, respectively. Further, the QD activity entry in assay [1] is “−”.
`CN1CCN(c2nc3ccc(Cl)cc3c3[nH]cnc23)CC1` [Example 160, 8-Chloro-4-(4-methylpiperazin-1-yl)-1H-imidazo[4,5-c]quinoline]: the EC50 at human H4 is less than 10 µM; on human H1, greater than 10 µM. Further, the BID activity entry in assay [1] is recorded as “−”.
Taken in the same sequence, the figures for `Cc1nc2c3ccc(C(F)(F)F)cc3nc(N3CCN(C)CC3)n2n1` [Example 109, 2-Methyl-5-(4-methylpiperazin-1-yl)-8-(trifluoromethyl)-[1,2,4]triazolo[1,5-c]quinazoline] were less than 10 µM, greater than 10 µM and “−”.
With `CN1CCN(c2nc3cc(Cl)c(Cl)cc3n3cnnc23)CC1` [Example 39, 7,8-dichloro-4-(4-methylpiperazin-1-yl)-[1,2,4]triazolo[4,3-a]quinoxaline], the figures for the EC50 on human H4 and at human H1 were less than 10 µM and greater than 10 µM, respectively. In addition, the BID activity result in assay [1] is “+”.
Consider `Cc1ccc2nc(N3CCN(C)CC3)n3nc(C)nc3c2c1` [Example 99, 2,9-Dimethyl-5-(4-methylpiperazin-1-yl)-[1,2,4]triazolo[1,5-c]quinazoline], for which the EC50 at human H4 was less than 10 µM. Further, the EC50 on human H1 was greater than 10 µM. In addition, in assay [1], the BID activity result is given as “+” and the QD activity entry is reported as “−”.
Take `Fc1cc(C(F)(F)F)cc2c1nc(N1CCNCC1)c1nncn12` [Example 49, 6-Fluoro-4-(piperazin-1-yl)-8-(trifluoromethyl)-[1,2,4]triazolo[4,3-a]quinoxaline]: the half-maximal effective concentration (EC50) on human H4 was less than 10 µM; on human H1 it was greater than 10 µM. For the same molecule, the QD activity entry in assay [1] was “−”.
In the case of `Fc1cc2nc(N3CCNCC3)c3nncn3c2cc1Cl` [Example 32, 8-chloro-7-fluoro-4-(piperazin-1-yl)-[1,2,4]triazolo[4,3-a]quinoxaline], the figures for the EC50 at human H4 and at human H1 were less than 10 µM and greater than 10 µM, respectively. The BID activity entry in assay [1] was “+”.
On to `Cc1nc2c3cc(OC(F)(F)F)ccc3nc(N3CCN(C)CC3)n2n1.Cl` [Example 133, 2-methyl-5-(4-methylpiperazin-1-yl)-9-(trifluoromethoxy)-[1,2,4]triazolo[1,5-c]quinazoline hydrochloride], for which the EC50 on human H4 is less than 10 µM; at human H1 it was greater than 10 µM. For the same molecule, the QD activity entry in assay [1] is recorded as “−”.
Taken in the same sequence, the figures for `Cc1nc2c3cc(C(F)(F)F)ccc3nc(N3CCNCC3)n2n1` [Example 104, 2-Methyl-5-(piperazin-1-yl)-9-(trifluoromethyl)-[1,2,4]triazolo[1,5-c]quinazoline] were less than 10 µM, greater than 10 µM and “−”.
`Clc1ccc2nc(N3CCNCC3)c3n[nH]cc3c2c1` [Example 153, 8-Chloro-4-(piperazin-1-yl)-2H-pyrazolo[3,4-c]quinoline]: the 50% effective concentration (EC50) on human H4 and on human H1 was less than 10 µM throughout. In assay [1], the BID activity entry is on record as “−”.
As for `Cc1nc2c(N3CCNCC3)nc3ccc(C(F)(F)F)cc3c2o1` [Example 215, 2-methyl-4-(piperazin-1-yl)-8-(trifluoromethyl)oxazolo[4,5-c]quinoline], the EC50 was less than 10 µM at human H4 and greater than 10 µM on human H1.
In the same order, the values of `CN1CCN(c2nc3cc(F)c(Cl)cc3n3ccnc23)CC1` [Example 179] are less than 10 µM and greater than 10 µM.
In the same order, the values of `COc1ccc2nc(N3CCN(C)CC3)n3nc(C)nc3c2c1` [Example 101, 9-Methoxy-2-methyl-5-(4-methylpiperazin-1-yl)-[1,2,4]triazolo[1,5-c]quinazoline] are less than 10 µM and greater than 10 µM.
Taken in the same sequence, the figures for `CN1CCN(c2nc3ccc(Cl)cc3c3nnnn23)CC1` [Example 13, 9-chloro-5-(4-methylpiperazin-1-yl)tetrazolo[1,5-c]quinazoline] were less than 10 µM and greater than 10 µM.
With `Cc1nc2c3cc(OC(F)(F)F)ccc3nc(N3CCNCC3)n2n1` [Example 134, 2-methyl-5-(piperazin-1-yl)-9-(trifluoromethoxy)-[1,2,4]triazolo[1,5-c]quinazoline hydrochloride], the EC50 was less than 10 µM on human H4 and greater than 10 µM at human H1.
In the same order, the values of `CN1CCN(c2nc3ccc(Cl)cc3c3ccsc23)CC1` [Example 149, 8-Chloro-4-(4-methylpiperazin-1-yl)thieno[2,3-c]quinoline] are less than 10 µM and less than 10 µM.
Regarding `Clc1ccc2nc(C3=CCNCC3)c3nncn3c2c1` [Example 1, 8-chloro-4-(1,2,3,6-tetrahydropyridin-4-yl)-[1,2,4]triazolo[4,3-a]quinoxaline], the concentration giving a half-maximal response (EC50) at human H4 and on human H1 was greater than 10 µM throughout.
As for `Fc1cc2c(cc1C(F)(F)F)nc(N1CCNCC1)c1nncn12` [Example 43, 8-Fluoro-4-(piperazin-1-yl)-7-(trifluoromethyl)-[1,2,4]triazolo[4,3-a]quinoxaline], the EC50 on human H4 is less than 10 µM; on human H1, greater than 10 µM.
In the same order, the values of `Clc1ccc2nc(OC3CCNCC3)c3nncn3c2c1` [Example 74, 8-chloro-4-(piperidin-4-yloxy)-[1,2,4]triazolo[4,3-a]quinoxaline] are greater than 10 µM and greater than 10 µM.
